Assay results: patent publication US20060142321A1, “5-HT7 receptor antagonists” (priority 2004, published 2006)
Structures can show the parent of a compound that is named as a salt.

target: T1, Cloned Human Serotonin Receptor, Subtype 7 (h5HT7) (Homo sapiens, UniProt P34969); experiment: Radioligand binding assay, [125I]LSD, cloned h5HT7 expressed in CHO cells (Flashplate); settings: [125I]LSD 0.82 nM, room temperature, 240 minutes, read-out: 5-HT7 IC-50
T1 construct: purchased PerkinElmer 6120512; host or cells: CHO cells (membranes coated on Basic FlashPlate SMP200)
Protocol: Biological Assays Radioligand Binding
Radioligand binding assays were performed using the Cloned Human Serotonin Receptor, Subtype 7 (h5HT7), expressed in CHO cells, coated on Flashplate (Basic FlashPlate Cat.: SMP200) from PerkinElmer (Cat.: 6120512). The protocol assay was essentially the recommended protocol in the Technical Data Sheet by PerkinEmer Life and Analytical Sciences. The Mass membrane protein/well was typically 12 μg and the Receptor/well was about 9-10 fmoles. The Flashplate were let equilibrate at room temperature for one hour before the addition of the components of the assay mixture. The binding buffer was: 50 mM Tris-HCl, pH 7.4, containing 10 mM MgCl2, 0.5 mM EDTA and 0.5% BSA. The radioligand was [^125I]LSD at a final concentration of 0.82 nM. Nonspecific binding was determined with 50 μM of Clozapine. The assay volume was 25 μl. TopSeal-A were applied onto Flashplate microplates and they were incubated at room temperature for 240 minutes in darkness. The radioactivity were quantified by liquid scintillation spectrophotometry (Wallac 1450 Microbeta Trilux) with a count delay of 4 minutes prior to counting and a counting time of 30 seconds per well. Competition binding data were analyzed by using the LIGAND program (Munson and Rodbard, LIGAND: A versatile, computerized approach for characterization of ligand-binding systems. Anal. Biochem. 107: 220-239, 1980) and assays were performed in triplicate determinations for each point.

T1 sequence (P34969 whole entry): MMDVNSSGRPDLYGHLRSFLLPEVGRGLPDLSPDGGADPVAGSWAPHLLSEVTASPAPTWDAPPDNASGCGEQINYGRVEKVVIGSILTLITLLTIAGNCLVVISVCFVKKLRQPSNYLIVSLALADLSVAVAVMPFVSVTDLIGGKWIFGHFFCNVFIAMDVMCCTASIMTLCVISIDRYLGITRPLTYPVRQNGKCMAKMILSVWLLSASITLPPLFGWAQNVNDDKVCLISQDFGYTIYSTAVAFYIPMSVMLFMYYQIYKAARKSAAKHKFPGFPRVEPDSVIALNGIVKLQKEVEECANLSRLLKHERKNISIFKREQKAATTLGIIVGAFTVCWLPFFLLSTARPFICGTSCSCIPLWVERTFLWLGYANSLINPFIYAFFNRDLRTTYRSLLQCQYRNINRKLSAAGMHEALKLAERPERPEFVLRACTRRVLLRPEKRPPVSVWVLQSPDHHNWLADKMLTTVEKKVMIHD

Structure (SMILES) | IC50 [nM]
Cc1cc(S(=O)(=O)NCCCCN2CCc3cccc4c3C2CC4)c(C)cc1Cl (stereo not shown) [Compound 7, 4-Chloro-2,5-dimethyl-N-[4-(2,2a,4-5-tetrahydro-1H-3-aza-acenaphthylen-3-yl)-butyl]-benzenesulfonamide hydrochloride] | 79.2
O=S(=O)(NCCCN1CCc2cccc3c2C1CC3)c1cc(Cl)ccc1Cl (stereo not shown) [Compound 15, 2,5-Dichloro-N-[3-(2,2a,4-5-tetrahydro-1H-3-aza-acenaphthylen-3-yl)-propyl]-benzenesulfonamide hydrochloride] | 142
COc1cc2c3c(c1OC)CCC3N(CCCNS(=O)(=O)c1cc(Cl)ccc1Cl)CC2 (stereo not shown) [Compound 56, 2,5-Dichloro-N-[3-(7,8-dimethoxy-2,2a,4-5-tetrahydro-1H-3-aza-acenaphthylen-3-yl)-propyl]-benzene sulfonamide hydrochloride] | 156
COc1cc2c3c(c1OC)CCC3N(CCCNS(=O)(=O)c1cc(F)c(F)cc1Cl)CC2 (stereo not shown) [Compound 58, 2-Chloro-N-[3-(7,8-dimethoxy-2,2a,4-5-tetrahydro-1H-3-aza-acenaphthylen-3-yl)-propyl]-4,5-difluoro-benzene sulfonamide hydrochloride] | 189
